“Also recorded” adds a separate entry of the source.
How the values were obtained:
[1] = test system: GFP-tagged mGluR2; test: Nanobody-photoswitch conjugate (NPC)-mediated photoswitching of GFP-tagged mGluR2; assay type: cell-based; details: SNAP-tagged anti-GFP nanobody labeled with PORTL
Excerpt: Finally, a long-term goal of tethered photopharmacology is to incorporate the optical control afforded by such compounds into antibody-mediated targeting of proteins. “Nanobody-photoswitch conjugates” (NPCs) consisting of a SNAP-tagged nanobody labeled with a PORTL have been reported. NPCs containing an anti-GFP nanobody are able to photoactivate GFP-tagged mGluR2, but with limited efficiency (Farrants et al., 2018).

[2] = target: T1, CLIP-mGluR2 (Rattus norvegicus, UniProt P31421); test: Photoactivation of CLIP-mGluR2, whole cell patch clamp in HEK 293T cells; assay type: cell-based
T1 construct: expressed in transfected cells; host or cells: HEK 293T
T1 sequence (P31421 with tags, fused parts or gaps): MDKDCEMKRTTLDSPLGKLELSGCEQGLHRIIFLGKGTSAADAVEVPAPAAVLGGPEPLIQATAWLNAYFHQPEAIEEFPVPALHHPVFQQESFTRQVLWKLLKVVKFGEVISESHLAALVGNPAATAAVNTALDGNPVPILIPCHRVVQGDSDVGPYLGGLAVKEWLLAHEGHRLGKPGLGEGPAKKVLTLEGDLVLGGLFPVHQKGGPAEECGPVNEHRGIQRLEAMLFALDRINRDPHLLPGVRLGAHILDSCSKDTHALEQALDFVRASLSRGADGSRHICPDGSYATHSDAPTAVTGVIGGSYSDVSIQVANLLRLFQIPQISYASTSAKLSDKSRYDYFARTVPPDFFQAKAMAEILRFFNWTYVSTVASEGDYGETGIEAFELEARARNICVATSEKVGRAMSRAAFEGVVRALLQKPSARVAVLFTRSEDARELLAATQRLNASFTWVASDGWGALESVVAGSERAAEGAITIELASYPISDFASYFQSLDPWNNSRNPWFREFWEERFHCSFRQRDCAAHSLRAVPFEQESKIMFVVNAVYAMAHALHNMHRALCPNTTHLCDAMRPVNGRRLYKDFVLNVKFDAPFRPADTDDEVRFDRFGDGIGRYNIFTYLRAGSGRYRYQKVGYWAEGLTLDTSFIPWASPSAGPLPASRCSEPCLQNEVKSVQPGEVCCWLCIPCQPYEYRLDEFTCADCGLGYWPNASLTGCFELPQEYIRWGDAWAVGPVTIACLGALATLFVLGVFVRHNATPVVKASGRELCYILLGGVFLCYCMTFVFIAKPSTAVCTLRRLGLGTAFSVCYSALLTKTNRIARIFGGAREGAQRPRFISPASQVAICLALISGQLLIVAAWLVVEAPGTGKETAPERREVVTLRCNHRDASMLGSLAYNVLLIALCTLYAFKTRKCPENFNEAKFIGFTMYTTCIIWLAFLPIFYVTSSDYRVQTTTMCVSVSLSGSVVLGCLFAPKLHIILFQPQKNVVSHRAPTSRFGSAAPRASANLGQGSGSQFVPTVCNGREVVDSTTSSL
Procedure: (§1) Whole cell patch clamp recordings from HEK 293T cells were performed 24-48 hours after transfection as previously described (Farrants et al., 2018). Briefly, voltage clamp recordings at −60 mV were performed in a high potassium (120 mM) solution to enable large inward currents upon receptor activation.
(§2) Unless otherwise noted, cells were incubated with 1-10 μM of PORTL for 45-60 min at 37° C. in the appropriate extracellular recording solution. Labeling efficiency was determined as previously described (Levitz et al., 2017). Illumination was applied to the entire field of view using a CoolLED pE-4000 through a 40× objective. Light intensity in the sample plane was 1-2 mW/mm^2. pClamp software was used for both data acquisition and control of illumination. All drugs were purchased from Tocris and applied using a gravity-driven perfusion system.

[3] = target: T2, SNAP-mGluR2 (Rattus norvegicus, UniProt P31421); test: Photoactivation of SNAP-mGluR2 read out as GIRK current, whole cell patch clamp in HEK293 cells; assay type: cell-based; details: specificity: applied to cells expressing SNAP-mGluR2, n=3 cells
T2 construct: expressed in transfected cells; host or cells: HEK293 / HEK 293T, with co-expressed GIRK channel
T2 sequence (P31421 with tags, fused parts or gaps): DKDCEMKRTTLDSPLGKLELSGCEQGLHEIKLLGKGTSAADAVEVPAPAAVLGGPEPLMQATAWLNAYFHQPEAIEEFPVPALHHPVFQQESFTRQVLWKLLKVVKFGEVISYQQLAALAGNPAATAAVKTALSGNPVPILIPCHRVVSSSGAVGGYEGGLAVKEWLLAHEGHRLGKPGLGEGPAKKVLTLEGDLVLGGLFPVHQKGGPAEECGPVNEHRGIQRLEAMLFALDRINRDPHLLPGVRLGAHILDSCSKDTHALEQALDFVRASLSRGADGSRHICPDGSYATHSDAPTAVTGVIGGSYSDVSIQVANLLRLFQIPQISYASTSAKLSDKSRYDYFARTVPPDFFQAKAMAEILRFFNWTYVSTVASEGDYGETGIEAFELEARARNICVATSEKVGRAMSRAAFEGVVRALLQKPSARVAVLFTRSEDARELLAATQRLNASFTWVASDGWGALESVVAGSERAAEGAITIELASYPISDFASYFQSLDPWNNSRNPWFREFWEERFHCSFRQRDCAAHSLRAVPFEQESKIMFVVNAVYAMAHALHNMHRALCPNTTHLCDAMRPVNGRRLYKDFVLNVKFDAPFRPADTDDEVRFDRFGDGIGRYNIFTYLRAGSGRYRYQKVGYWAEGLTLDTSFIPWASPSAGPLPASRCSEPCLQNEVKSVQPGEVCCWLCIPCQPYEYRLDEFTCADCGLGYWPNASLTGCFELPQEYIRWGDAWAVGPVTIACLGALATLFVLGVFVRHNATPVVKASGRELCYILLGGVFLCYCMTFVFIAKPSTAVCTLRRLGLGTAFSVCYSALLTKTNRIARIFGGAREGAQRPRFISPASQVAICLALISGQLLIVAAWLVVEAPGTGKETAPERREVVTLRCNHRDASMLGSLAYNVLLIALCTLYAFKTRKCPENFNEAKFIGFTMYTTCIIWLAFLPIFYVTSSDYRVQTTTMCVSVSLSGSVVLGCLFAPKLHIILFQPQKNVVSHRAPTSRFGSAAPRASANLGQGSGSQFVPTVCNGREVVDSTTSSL
Procedure: as §1, §2
FIG. 3A-3C. Monovalent BGAG12,460 elicits rat SNAP-mGluR2 and human SNAP-mGluR6 GIRK photo-current in HEK293 cells. FIG. 3A. Group II and III mGluRs, like mGluR2 and 6, respectively, couple to GIRK channels in neurons and this system reconstitutes in non-neuronal cell lines, so that SNAP-mGluR2 or 6 coupled to a BGAG photoswitch will be activated by light and induce hyperpolarizing GIRK current. FIG. 3B. Blue (460 nm) light photo-activates BGAG12,460:SNAP-mGluR2 and elicits an inward K+ current from co-expressed GIRK channel in a HEK293 cell voltage clamped at −60 mV with [K+]in=[K+]out=150 mM. FIG. 3C.
FIG. 4A-4D. Multibranched BGAG12,460 increases potency and sensitivity of SNAP-mGluR2 activation of GIRK channels in HEK293 cells. FIG. 4A. ^4×BGAG12,460 consists of a single BG end for 1:1 attachment to SNAP on each subunit of the mGluR and 4 branches of a 12-PEG linker, with each branch bearing a photoswitchable azobenzene-glutamate (AG). FIG. 4B. […] Dependence of SNAP-mGluR2 photo-activation efficiency, read out as GIRK current, with single, 2-branch and 4-branch BGAG12,460. […]

[4] = target: T3, Halo-mGluR2 (Rattus norvegicus, UniProt P31421); test: Photoactivation and labeling of Halo-mGluR2, whole cell patch clamp in HEK 293T cells; assay type: cell-based
T3 construct: expressed in transfected cells; host or cells: HEK 293T
T3 sequence (P31421 with tags, fused parts or gaps): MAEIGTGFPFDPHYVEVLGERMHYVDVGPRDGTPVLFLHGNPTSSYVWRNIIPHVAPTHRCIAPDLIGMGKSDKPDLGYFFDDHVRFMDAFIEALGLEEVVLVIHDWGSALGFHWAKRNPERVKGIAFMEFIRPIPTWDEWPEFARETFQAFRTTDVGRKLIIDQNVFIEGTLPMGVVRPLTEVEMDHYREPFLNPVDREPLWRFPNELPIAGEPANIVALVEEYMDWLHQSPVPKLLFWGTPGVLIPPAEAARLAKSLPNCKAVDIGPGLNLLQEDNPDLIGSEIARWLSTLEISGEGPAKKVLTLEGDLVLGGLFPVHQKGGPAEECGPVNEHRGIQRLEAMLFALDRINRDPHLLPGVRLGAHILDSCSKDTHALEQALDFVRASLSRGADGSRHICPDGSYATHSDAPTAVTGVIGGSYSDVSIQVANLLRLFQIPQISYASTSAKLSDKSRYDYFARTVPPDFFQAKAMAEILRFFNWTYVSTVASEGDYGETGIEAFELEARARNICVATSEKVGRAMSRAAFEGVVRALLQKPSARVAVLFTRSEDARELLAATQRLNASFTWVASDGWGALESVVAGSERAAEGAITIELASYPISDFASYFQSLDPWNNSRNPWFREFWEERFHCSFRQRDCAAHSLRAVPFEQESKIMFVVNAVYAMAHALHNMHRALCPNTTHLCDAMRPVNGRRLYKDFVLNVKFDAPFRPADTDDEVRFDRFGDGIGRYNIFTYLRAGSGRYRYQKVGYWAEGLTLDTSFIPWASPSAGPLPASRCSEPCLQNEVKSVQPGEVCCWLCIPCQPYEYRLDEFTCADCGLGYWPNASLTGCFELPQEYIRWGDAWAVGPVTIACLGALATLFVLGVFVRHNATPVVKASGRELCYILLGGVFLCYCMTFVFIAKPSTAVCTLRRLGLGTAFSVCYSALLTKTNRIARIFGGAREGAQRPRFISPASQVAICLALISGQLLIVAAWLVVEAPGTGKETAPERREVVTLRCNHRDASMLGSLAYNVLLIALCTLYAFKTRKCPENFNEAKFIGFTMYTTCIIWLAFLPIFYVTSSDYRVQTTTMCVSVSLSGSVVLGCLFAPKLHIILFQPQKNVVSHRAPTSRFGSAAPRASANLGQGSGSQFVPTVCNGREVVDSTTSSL
Procedure: as §1, §2
With the goal of further expanding the repertoire of PORTLs to a third self-labelling, orthogonal suicide enzyme, the Halo-tag, which reacts specifically with alkyl chlorides (Los et al., 2008), was used. […] Based on the hypothesis that branching Halo-targeting PORTLs would enhance photoswitching, “doubleClAG12” (^2×ClAG12) (Scheme S8 (FIG. 1H); FIG. 2E) was synthesized. […]

[5] = test system: rd1 animals expressing medium wave cone opsin in RGCs; details: Berry et al. (2019); cited from earlier work
[6] = test system: rd1 animals expressing medium wave cone opsin in RGCs; test: Line pattern recognition in moving displays, medium wave cone opsin in RGCs; assay type: in vivo, mouse; details: expressed in RGCs of rd1 animals
Excerpt: The kinetics of onset, decay and recovery of the restored light response are expected to affect the ability to recognize a visual pattern. […] Thus, the speed limit of ^4×BGAG12,460:SNAP-mGluR2 in RGCs is ≥8 cm/s, whereas that of medium wave cone opsin in RGCs is ≤4 cm/s.

[7] = test system: RGCs from isolated rd1 retina; test: MEA recordings of RGCs from isolated rd1 retina; assay type: cell-based, mouse; details: 1 s light flashes
Excerpt: FIG. 10A-10C. MEA recordings of RGCs from isolated rd1 retina with either BGAG12,460:SNAP-mGluR2 or medium wave cone opsin in RGCs. A) Superimposed average responses to 1 s light flashes in dozens of RGCs in 3 representative retinas isolated from: wildtype mice (Wt; red), rd1 mice expressing medium wave (MW) cone opsin in RGCs (black), and rd1 mice expressing SNAP-mGluR2 in RGCs (blue) following intravitreal injection of BGAG12,460. […] B) Blue light activation of BGAG12,460:SNAP-mGluR2 evokes an immediate inhibition with a sustained amplitude during illumination, followed by a transient excitatory rebound after termination of illumination. […] As light pulses are shortened, the delay to peak response increases and deactivation slows, (from (Berry et al. (2019) supra).

Molecule: Nc1nc(OCc2ccc(CNC(=O)CCCC(=O)NCCOCCOCCOCCOCCOCCOCCOCCOCCOCCOCCOCCOCCC(=O)N[C@H](CCC(=O)NCC(=O)Nc3ccc(/N=N/c4ccc(NC(=O)CCC[C@@H](C[C@H](N)C(=O)O)C(=O)O)cc4)cc3)C(=O)NCC(=O)Nc3ccc(/N=N/c4ccc(NC(=O)CCC[C@@H](C[C@H](N)C(=O)O)C(=O)O)cc4)cc3)cc2)c2nc[nH]c2n1 [^2×BGAG12]
- photoswitch efficiency of NPC-mediated photoswitching of mGluR2 [1]: doubled the photoswitch efficiency

Molecule: Nc1ccnc(OCc2ccc(CNC(=O)CCC(=O)N3Cc4ccccc4-c4nnn(CCOCCOCCOCCOCCOCCOCCOCCOCCOCCOCCOCCOCCC(=O)N[C@H](CCC(=O)NCC(=O)Nc5ccc(/N=N/c6ccc(NC(=O)CCC[C@@H](C[C@H](N)C(=O)O)C(=O)O)cc6)cc5)C(=O)NCC(=O)Nc5ccc(/N=N/c6ccc(NC(=O)CCC[C@@H](C[C@H](N)C(=O)O)C(=O)O)cc6)cc5)c4-c4ccccc43)cc2)n1 [^2×BCAG12]
- optical control / efficiency of photoactivation of CLIP-mGluR2 [2]: near-complete optical control; also recorded: enhances efficiency of CLIP-mGluR2 photoactivation compared to BCAG12
- photocurrent relative to 1 mM glutamate [3]: 2.8±0.3%

Molecule: N[C@@H](C[C@H](CCCC(=O)Nc1ccc(/N=N/c2ccc(NC(=O)CNC(=O)CCOCCOCCOCCOCCOCCOCCOCCOCCOCCOCCOCCOCCNC(=O)CCCC(=O)NCCOCCOCCCCCCCl)cc2)cc1)C(=O)O)C(=O)O [ClAG12, (2S,4S)-2-Amino-4-(4-((4-((E)-(4-(61-chloro-4,44,48-trioxo-7,10,13,16,19,22,25,28,31,34,37,40,52,55-tetradecaoxa-3,43,49-triazahenhexacontanamido)phenyl)diazenyl)phenyl)amino)-4-oxobutyl)pentanedioic acid]
- photoactivation of Halo-mGluR2 [4]: showed photoactivation of mGluR2

B1: medium wave cone opsin: medium wave (MW) cone opsin expressed in RGCs of rd1 mice, comparator light-activated GPCR (protein, UniProt O35599 1-359, looked up)
Medium-wave-sensitive opsin 1: MAQRLTGEQTLDHYEDSTHASIFTYTNSNSTKGPFEGPNYHIAPRWVYHLTSTWMILVVVASVFTNGLVLAATMRFKKLRHPLNWILVNLAVADLAETIIASTISVVNQIYGYFVLGHPLCVIEGYIVSLCGITGLWSLAIISWERWLVVCKPFGNVRFDAKLATVGIVFSWVWAAIWTAPPIFGWSRYWPYGLKTSCGPDVFSGTSYPGVQSYMMVLMVTCCIFPLSIIVLCYLQVWLAIRAVAKQQKESESTQKAEKEVTRMVVVMVFAYCLCWGPYTFFACFATAHPGYAFHPLVASLPSYFAKSATIYNPIIYVFMNRQFRNCILHLFGKKVDDSSELSSTSKTEVSSVSSVSPA
- line pattern recognition when the displays move at 1 cm/s [5]: perform well
- line pattern recognition when the display moved at 4 cm/s [6]: performed at the level of the untreated rd1 animals
- speed limit of line pattern recognition in moving displays [6]: ≤ 4 cm/s
- latency of RGC response to light onset [7]: delayed response

From US12076329B2, “Compositions and methods for enhancing visual function” (The Regents of the University of California, priority 2020, dated 2024)
